How the values were obtained:
Test in all cases: Bliss interaction score (quartile over a dose matrix) (fitness difference); higher = more antagonism (negative = synergy)
S. pneumoniae D39V = tested on: S. pneumoniae D39V
How it was run: (§1)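 Values were capped at 1 after dividing OD595 at stationary-phase entry by the plate's robust no-drug mean. This ratio is fitness, and single-drug fitness was inferred from the combination data. The Bliss score is observed minus product-expected fitness, given as quartiles over technical, biological and donor/recipient replicates.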

S. aureus Newman = tested on: S. aureus Newman
How it was run: as §1

S. aureus DSM 20231 = tested on: S. aureus DSM 20231
How it was run: as §1

B. subtilis 168 = tested on: B. subtilis 168
How it was run: as §1
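Note: first quartile when negative (synergy) and third quartile when positive (antagonism).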

Structure (SMILES) | Bliss interaction score (S. pneumoniae D39V) | Bliss interaction score (S. aureus Newman) | Bliss interaction score (S. aureus DSM 20231) | Bliss interaction score (B. subtilis 168)
CO/N=C(\C(=O)N[C@@H]1C(=O)N2C(C(=O)O)=C(COC(C)=O)CS[C@H]12)c1csc(N)n1 [Cefotaxime] + CC[C@H]1OC(=O)[C@H](C)[C@@H](O[C@H]2C[C@@](C)(OC)[C@@H](O)[C@H](C)O2)[C@H](C)[C@@H](O[C@@H]2O[C@H](C)C[C@H](N(C)C)[C@H]2O)[C@](C)(O)C[C@@H](C)C(=O)[C@H](C)[C@@H](O)[C@]1(C)O [Erythromycin] | 0.0515 | -0.0525 | 0.016 | 0.0702
CO/N=C(\C(=O)N[C@@H]1C(=O)N2C(C(=O)O)=C(COC(C)=O)CS[C@H]12)c1csc(N)n1 [Cefotaxime] + CC[C@H]1OC(=O)[C@H](C)[C@@H](O[C@H]2C[C@@](C)(OC)[C@@H](O)[C@H](C)O2)[C@H](C)[C@@H](O[C@@H]2O[C@H](C)C[C@H](N(C)C)[C@H]2O)[C@](C)(OC)C[C@@H](C)C(=O)[C@H](C)[C@@H](O)[C@]1(C)O [Clarithromycin] | 0.0611 | -0.0626 | 0.0514 | 0.0567
CO/N=C(\C(=O)N[C@@H]1C(=O)N2C(C(=O)O)=C(COC(C)=O)CS[C@H]12)c1csc(N)n1 [Cefotaxime] + CN(C)[C@@H]1C(O)=C(C(N)=O)C(=O)[C@@]2(O)C(O)=C3C(=O)c4c(O)ccc(Cl)c4[C@@](C)(O)[C@H]3C[C@@H]12 [Clortetracycline] | 0.0665 | 0.0483 | 0.0917 | 0.0481
CO/N=C(\C(=O)N[C@@H]1C(=O)N2C(C(=O)O)=C(COC(C)=O)CS[C@H]12)c1csc(N)n1 [Cefotaxime] + CN[C@H](CC(C)C)C(=O)N[C@H]1C(=O)N[C@@H](CC(N)=O)C(=O)N[C@H]2C(=O)N[C@H]3C(=O)N[C@H](C(=O)N[C@H](C(=O)O)c4cc(O)cc(O)c4-c4cc3ccc4O)[C@H](O[C@H]3C[C@](C)(N)[C@@H](O)[C@H](C)O3)c3ccc(c(Cl)c3)Oc3cc2cc(c3O[C@@H]2O[C@H](CO)[C@@H](O)[C@H](O)[C@H]2O[C@H]2C[C@](C)(NCc3ccc(-c4ccc(Cl)cc4)cc3)[C@@H](O)[C@H](C)O2)Oc2ccc(cc2Cl)[C@H]1O [Oritavancin] | -0.106 | 0.0965 | 0.0947 | 0.0516
CO/N=C(\C(=O)N[C@@H]1C(=O)N2C(C(=O)O)=C(COC(C)=O)CS[C@H]12)c1csc(N)n1 [Cefotaxime] + CO[C@@]12[C@H](COC(N)=O)C3=C(C(=O)C(C)=C(N)C3=O)N1C[C@@H]1N[C@@H]12 [MitomycinC] | 0.118 | 0.0256 | 0.0387 | -0.135
CO/N=C(\C(=O)N[C@@H]1C(=O)N2C(C(=O)O)=C(COC(C)=O)CS[C@H]12)c1csc(N)n1 [Cefotaxime] + N[C@@H]1CONC1=O [CycloserineD] | -0.0787 | 0.0643 | 0.0848 | 0.0869
CO/N=C(\C(=O)N[C@@H]1C(=O)N2C(C(=O)O)=C(COC(C)=O)CS[C@H]12)c1csc(N)n1 [Cefotaxime] + O=C(N[C@H](CO)[C@H](O)c1ccc([N+](=O)[O-])cc1)C(Cl)Cl [Chloramphenicol] | 0.158 | -0.0902 | 0.106 | -0.0771
CO/N=C(\C(=O)N[C@@H]1C(=O)N2C(C(=O)O)=C(COC(C)=O)CS[C@H]12)c1csc(N)n1 [Cefotaxime] + O=C(O)[C@H]1/C(=C/CO)O[C@@H]2CC(=O)N21 [Clavulanic] | -0.0534 | 0.279 | 0.176 | -0.0436
CO/N=C(\C(=O)N[C@@H]1C(=O)N2C(C(=O)O)=C(COC(C)=O)CS[C@H]12)c1csc(N)n1 [Cefotaxime] + O=C(O)c1cn(C2CC2)c2cc(N3CCNCC3)c(F)cc2c1=O [Ciprofloxacin] | 0.154 | 0.0294 | -0.0413 | -0.144
CO/N=C(\C(=O)N[C@@H]1C(=O)N2C(C(=O)O)=C(COC(C)=O)CS[C@H]12)c1csc(N)n1 [Cefotaxime] + Oc1cc(Cl)ccc1Oc1ccc(Cl)cc1Cl [Triclosan] | -0.0421 | 0.033 | 0.0696 | 0.0558
CO/N=C(\C(=O)N[C@@H]1C(=O)N2C(C(=O)O)=C(COC(N)=O)CS[C@H]12)c1ccco1 [Cefuroxime] + CC1(C)S[C@@H]2[C@H](NC(=O)Cc3ccccc3)C(=O)N2[C@H]1C(=O)O [PenicillinG] | -0.0476 | 0.102 | -0.154 | -0.0758
CO/N=C(\C(=O)N[C@@H]1C(=O)N2C(C(=O)O)=C(COC(N)=O)CS[C@H]12)c1ccco1 [Cefuroxime] + CC(=O)O[C@H]1C[C@@]2(C)[C@@H](C[C@@H](O)[C@H]3[C@@]4(C)CC[C@@H](O)[C@@H](C)[C@@H]4CC[C@@]32C)/C1=C(\CCC=C(C)C)C(=O)O [Fusidic acid] | 0.0348 | 0.104 | -0.281 | 0.137
CO/N=C(\C(=O)N[C@@H]1C(=O)N2C(C(=O)O)=C(COC(N)=O)CS[C@H]12)c1ccco1 [Cefuroxime] + CCC[C@@H]1C[C@@H](C(=O)N[C@@H]([C@H]2O[C@H](SC)[C@H](O)[C@@H](O)[C@H]2O)[C@H](C)Cl)N(C)C1 [Clindamycin] | 0.0539 | -0.0892 | -0.156 | -0.048
CO/N=C(\C(=O)N[C@@H]1C(=O)N2C(C(=O)O)=C(COC(N)=O)CS[C@H]12)c1ccco1 [Cefuroxime] + CC[C@H]1OC(=O)[C@H](C)C(=O)[C@H](C)[C@@H](O[C@@H]2O[C@H](C)C[C@H](N(C)C)[C@H]2O)[C@](C)(OC)C[C@@H](C)C(=O)[C@H](C)[C@H]2N(CCCCn3cnc(-c4cccnc4)c3)C(=O)O[C@]12C [Telithromycin] | 0.0493 | 0.272 | -0.0813 | 0.0752
CO/N=C(\C(=O)N[C@@H]1C(=O)N2C(C(=O)O)=C(COC(N)=O)CS[C@H]12)c1ccco1 [Cefuroxime] + CC[C@H]1OC(=O)[C@H](C)[C@@H](O[C@H]2C[C@@](C)(OC)[C@@H](O)[C@H](C)O2)[C@H](C)[C@@H](O[C@@H]2O[C@H](C)C[C@H](N(C)C)[C@H]2O)[C@](C)(O)C[C@@H](C)C(=O)[C@H](C)[C@@H](O)[C@]1(C)O [Erythromycin] | 0.0365 | 0.0555 | -0.255 | -0.0464
CO/N=C(\C(=O)N[C@@H]1C(=O)N2C(C(=O)O)=C(COC(N)=O)CS[C@H]12)c1ccco1 [Cefuroxime] + CC[C@H]1OC(=O)[C@H](C)[C@@H](O[C@H]2C[C@@](C)(OC)[C@@H](O)[C@H](C)O2)[C@H](C)[C@@H](O[C@@H]2O[C@H](C)C[C@H](N(C)C)[C@H]2O)[C@](C)(OC)C[C@@H](C)C(=O)[C@H](C)[C@@H](O)[C@]1(C)O [Clarithromycin] | 0.0629 | 0.0734 | -0.249 | -0.0354
CO/N=C(\C(=O)N[C@@H]1C(=O)N2C(C(=O)O)=C(COC(N)=O)CS[C@H]12)c1ccco1 [Cefuroxime] + CN(C)[C@@H]1C(O)=C(C(N)=O)C(=O)[C@@]2(O)C(O)=C3C(=O)c4c(O)ccc(Cl)c4[C@@](C)(O)[C@H]3C[C@@H]12 [Clortetracycline] | 0.112 | -0.0677 | -0.269 | -0.0786
CO/N=C(\C(=O)N[C@@H]1C(=O)N2C(C(=O)O)=C(COC(N)=O)CS[C@H]12)c1ccco1 [Cefuroxime] + CN[C@H](CC(C)C)C(=O)N[C@H]1C(=O)N[C@@H](CC(N)=O)C(=O)N[C@H]2C(=O)N[C@H]3C(=O)N[C@H](C(=O)N[C@H](C(=O)O)c4cc(O)cc(O)c4-c4cc3ccc4O)[C@H](O[C@H]3C[C@](C)(N)[C@@H](O)[C@H](C)O3)c3ccc(c(Cl)c3)Oc3cc2cc(c3O[C@@H]2O[C@H](CO)[C@@H](O)[C@H](O)[C@H]2O[C@H]2C[C@](C)(NCc3ccc(-c4ccc(Cl)cc4)cc3)[C@@H](O)[C@H](C)O2)Oc2ccc(cc2Cl)[C@H]1O [Oritavancin] | 0.0536 | -0.103 | -0.0743 | -0.0309
CO/N=C(\C(=O)N[C@@H]1C(=O)N2C(C(=O)O)=C(COC(N)=O)CS[C@H]12)c1ccco1 [Cefuroxime] + CO[C@@]12[C@H](COC(N)=O)C3=C(C(=O)C(C)=C(N)C3=O)N1C[C@@H]1N[C@@H]12 [MitomycinC] | 0.0599 | -0.0903 | -0.0745 | -0.211
CO/N=C(\C(=O)N[C@@H]1C(=O)N2C(C(=O)O)=C(COC(N)=O)CS[C@H]12)c1ccco1 [Cefuroxime] + CO[C@H]1/C=C/O[C@@]2(C)Oc3c(C)c(O)c4c(O)c(c(/C=N/N5CCN(C)CC5)c(O)c4c3C2=O)NC(=O)/C(C)=C\C=C\[C@H](C)[C@H](O)[C@@H](C)[C@@H](O)[C@@H](C)[C@H](OC(C)=O)[C@@H]1C [Rifampicin] | 0.102 | 0.0557 | 0.109 | 0.0741
CO/N=C(\C(=O)N[C@@H]1C(=O)N2C(C(=O)O)=C(COC(N)=O)CS[C@H]12)c1ccco1 [Cefuroxime] + C[C@@H](O)[C@H]1C(=O)N2C(C(=O)O)=C(SCCNC=N)C[C@H]12 [Imipenem] | 0.0481 | -0.0353 | 0.145 | 0.0678
CO/N=C(\C(=O)N[C@@H]1C(=O)N2C(C(=O)O)=C(COC(N)=O)CS[C@H]12)c1ccco1 [Cefuroxime] + Clc1ccc(COC(Cn2ccnc2)c2ccc(Cl)cc2Cl)c(Cl)c1 [Miconazole] | 0.0717 | 0.025 | 0.112 | 0.0653
CO/N=C(\C(=O)N[C@@H]1C(=O)N2C(C(=O)O)=C(COC(N)=O)CS[C@H]12)c1ccco1 [Cefuroxime] + N[C@@H]1CONC1=O [CycloserineD] | 0.0839 | -0.0647 | 0.114 | -0.0514
CO/N=C(\C(=O)N[C@@H]1C(=O)N2C(C(=O)O)=C(COC(N)=O)CS[C@H]12)c1ccco1 [Cefuroxime] + O=C1CN(/N=C/c2ccc([N+](=O)[O-])o2)C(=O)N1 [Nitrofurantoin] | 0.0749 | -0.0317 | 0.0612 | -0.104
CO/N=C(\C(=O)N[C@@H]1C(=O)N2C(C(=O)O)=C(COC(N)=O)CS[C@H]12)c1ccco1 [Cefuroxime] + O=C(N[C@H](CO)[C@H](O)c1ccc([N+](=O)[O-])cc1)C(Cl)Cl [Chloramphenicol] | -0.0245 | -0.0407 | -0.341 | 0.162
CO/N=C(\C(=O)N[C@@H]1C(=O)N2C(C(=O)O)=C(COC(N)=O)CS[C@H]12)c1ccco1 [Cefuroxime] + O=C(O)c1cn(C2CC2)c2cc(N3CCNCC3)c(F)cc2c1=O [Ciprofloxacin] | -0.0381 | -0.0563 | -0.31 | -0.171
CO/N=C(\C(=O)N[C@@H]1C(=O)N2C(C(=O)O)=C(COC(N)=O)CS[C@H]12)c1ccco1 [Cefuroxime] + Oc1cc(Cl)ccc1Oc1ccc(Cl)cc1Cl [Triclosan] | 0.0619 | -0.0309 | 0.0932 | 0.0538
O=C(O)c1cn(C2CC2)c2cc(N3CCNCC3)c(F)cc2c1=O [Ciprofloxacin] + CC1(C)S[C@@H]2[C@H](NC(=O)Cc3ccccc3)C(=O)N2[C@H]1C(=O)O [PenicillinG] | 0.0662 | -0.0565 | -0.0624 | 0.0481
O=C(O)c1cn(C2CC2)c2cc(N3CCNCC3)c(F)cc2c1=O [Ciprofloxacin] + CC(=O)O[C@H]1C[C@@]2(C)[C@@H](C[C@@H](O)[C@H]3[C@@]4(C)CC[C@@H](O)[C@@H](C)[C@@H]4CC[C@@]32C)/C1=C(\CCC=C(C)C)C(=O)O [Fusidic acid] | 0.0674 | 0.0831 | 0.04 | 0.19
O=C(O)c1cn(C2CC2)c2cc(N3CCNCC3)c(F)cc2c1=O [Ciprofloxacin] + CC[C@H]1OC(=O)[C@H](C)C(=O)[C@H](C)[C@@H](O[C@@H]2O[C@H](C)C[C@H](N(C)C)[C@H]2O)[C@](C)(OC)C[C@@H](C)C(=O)[C@H](C)[C@H]2N(CCCCn3cnc(-c4cccnc4)c3)C(=O)O[C@]12C [Telithromycin] | 0.0763 | 0.0334 | 0.0454 | 0.149

From the supplement of paper PMC10627819
